System: AGEs production (BSA + Methylglyoxal)
Experiment: Inhibition of AGEs production: co-incubation with BSA and MGO, fluorescence read-out
Format: biochemical
Conditions: Compound concentration 1mg/mL
Protocol: Bovine serum albumin (BSA) can interact with Methylglyoxal (MGO) to produce AGEs. The compound to be tested was co-incubated with BSA and MGO, and the level of the AGEs production was determined through detecting change of fluorescence value in the system, to thereby evaluate whether or not the compound had inhibitory effect on the AGEs production. […]
With reference to the method of Test Example 1, the inhibitory effect of the AGEs inhibitory compositions of Examples 1-3 on AGEs production was examined. The test results were as follows: Table 13 Inhibitory effect of the AGEs inhibitory compositions on AGEs production

Cc1ncc(C[n+]2csc(CCO)c2C)c(N)n1 [Vitamin B1]
AGEs production inhibition rate % (Table 9, 7 samples): 87.3%

N=C(N)NN [Aminoguanidine]
AGEs production inhibition rate % (Table 1, bilberry extracts with different anthocyanin contents): 101.1% | AGEs production inhibition rate % (Table 9, 7 samples): 101.1%

Cc1cc2nc3c(=O)[nH]c(=O)nc-3n(C[C@H](O)[C@H](O)[C@H](O)CO)c2cc1C [Vitamin B2]
AGEs production inhibition rate % (Table 9, 7 samples): 94.3%

Cc1ncc(CO)c(CO)c1O.Cl [Vitamin B6]
AGEs production inhibition rate % (Table 9, 7 samples): 77.6%

From patent publication EP3689361A1, “APPLICATION OF CRANBERRY OR EXTRACT THEREOF IN PREPARATION OF MEDICATIONS OR HEALTH-CARE FOOD FOR TREATING, DELAYING OR ALLEVIATING AGES-RELATED DISEASES” (BY-Health Co., Ltd., priority 2018, dated 2020)
